Consider four molecules from article PMC10004634 (PLOS ONE, 2023).

pIC50: −log10 of the molar value. Where two headings read alike, the source gives them in different places.

One experiment deals with T1, CDC2L1 (Homo sapiens, UniProt P21127).
T1 construct: gene CDK11B
As to the kind of experiment: biochemical. Further details: KINOMEscan scanMAX competition binding, DNA-tagged kinases, qPCR read-out, percent control at 300 nM.

The target in the next experiment is RET(V804L) (Homo sapiens, UniProt P07949, V804L). As to the kind of experiment: biochemical. Further details: KINOMEscan scanMAX competition binding, DNA-tagged kinases, qPCR read-out, percent control at 300 nM.
RET(V804L), sequence (P07949 whole entry V804L): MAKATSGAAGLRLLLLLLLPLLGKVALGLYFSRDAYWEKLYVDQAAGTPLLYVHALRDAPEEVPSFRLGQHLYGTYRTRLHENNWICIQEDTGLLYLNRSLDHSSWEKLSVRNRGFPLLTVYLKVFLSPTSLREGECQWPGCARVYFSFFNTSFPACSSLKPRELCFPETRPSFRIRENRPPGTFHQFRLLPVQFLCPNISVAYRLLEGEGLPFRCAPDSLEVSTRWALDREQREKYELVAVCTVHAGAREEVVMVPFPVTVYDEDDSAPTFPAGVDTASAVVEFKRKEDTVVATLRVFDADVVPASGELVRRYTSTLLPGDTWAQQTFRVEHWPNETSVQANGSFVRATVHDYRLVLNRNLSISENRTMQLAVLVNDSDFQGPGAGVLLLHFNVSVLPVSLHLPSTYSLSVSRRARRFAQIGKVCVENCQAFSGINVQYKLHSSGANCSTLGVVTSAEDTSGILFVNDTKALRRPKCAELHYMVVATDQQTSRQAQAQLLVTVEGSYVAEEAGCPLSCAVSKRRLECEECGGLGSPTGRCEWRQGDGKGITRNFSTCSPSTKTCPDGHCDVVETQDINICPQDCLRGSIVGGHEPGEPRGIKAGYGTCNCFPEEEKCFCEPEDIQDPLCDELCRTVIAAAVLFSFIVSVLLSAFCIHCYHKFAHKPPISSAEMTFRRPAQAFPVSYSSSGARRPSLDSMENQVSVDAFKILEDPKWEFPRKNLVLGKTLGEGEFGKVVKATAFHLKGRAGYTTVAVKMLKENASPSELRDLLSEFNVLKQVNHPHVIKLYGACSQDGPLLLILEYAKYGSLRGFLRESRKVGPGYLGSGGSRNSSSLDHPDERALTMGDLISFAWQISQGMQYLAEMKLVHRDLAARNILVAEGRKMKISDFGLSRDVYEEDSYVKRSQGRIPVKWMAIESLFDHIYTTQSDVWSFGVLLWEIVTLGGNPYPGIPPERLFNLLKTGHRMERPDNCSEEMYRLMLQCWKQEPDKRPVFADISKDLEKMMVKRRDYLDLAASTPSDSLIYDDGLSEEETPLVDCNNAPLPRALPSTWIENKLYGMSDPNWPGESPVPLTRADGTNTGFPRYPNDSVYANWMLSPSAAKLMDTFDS
The target of the next experiment is MAPKAPK2 (Homo sapiens, UniProt P49137). As to the kind of experiment: biochemical. Also on record: KINOMEscan scanMAX competition binding, DNA-tagged kinases, qPCR read-out, percent control at 300 nM.
MAPKAPK2, sequence (P49137 whole entry): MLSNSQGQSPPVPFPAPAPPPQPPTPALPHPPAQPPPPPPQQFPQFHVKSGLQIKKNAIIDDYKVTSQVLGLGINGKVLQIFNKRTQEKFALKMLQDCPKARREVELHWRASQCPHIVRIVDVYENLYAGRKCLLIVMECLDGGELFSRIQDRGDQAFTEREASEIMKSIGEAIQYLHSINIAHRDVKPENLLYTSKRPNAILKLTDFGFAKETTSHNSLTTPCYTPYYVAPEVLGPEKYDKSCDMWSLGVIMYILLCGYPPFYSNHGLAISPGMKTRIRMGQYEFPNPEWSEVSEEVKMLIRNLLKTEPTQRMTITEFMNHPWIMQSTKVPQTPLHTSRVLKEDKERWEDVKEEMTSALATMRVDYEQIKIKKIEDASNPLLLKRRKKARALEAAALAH
For another experiment, the target named is T2, ADCK4 (Homo sapiens, UniProt Q96D53).
T2 construct: gene COQ8B
T2 sequence (Q96D53 whole entry): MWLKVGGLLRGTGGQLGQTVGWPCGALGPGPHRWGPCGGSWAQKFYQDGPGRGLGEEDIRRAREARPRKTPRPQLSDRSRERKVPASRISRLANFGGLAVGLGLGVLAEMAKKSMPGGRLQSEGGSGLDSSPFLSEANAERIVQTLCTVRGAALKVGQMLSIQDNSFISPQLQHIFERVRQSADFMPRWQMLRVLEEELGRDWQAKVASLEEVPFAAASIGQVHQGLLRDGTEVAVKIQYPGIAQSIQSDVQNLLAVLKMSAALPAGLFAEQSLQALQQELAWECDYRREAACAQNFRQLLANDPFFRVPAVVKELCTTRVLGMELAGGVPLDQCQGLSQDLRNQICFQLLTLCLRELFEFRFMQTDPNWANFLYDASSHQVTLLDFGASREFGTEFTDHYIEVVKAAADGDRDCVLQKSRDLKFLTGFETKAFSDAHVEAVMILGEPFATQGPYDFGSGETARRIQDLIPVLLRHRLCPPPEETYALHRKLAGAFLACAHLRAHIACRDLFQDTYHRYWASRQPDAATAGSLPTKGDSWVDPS
As to the kind of experiment: biochemical. Further details: KINOMEscan scanMAX competition binding, DNA-tagged kinases, qPCR read-out, percent control at 300 nM.

The next experiment deals with EPHA7 (Homo sapiens, UniProt Q15375). As to the kind of experiment: biochemical. Also on record: KINOMEscan scanMAX competition binding, DNA-tagged kinases, qPCR read-out, percent control at 300 nM.
EPHA7, sequence (Q15375 whole entry): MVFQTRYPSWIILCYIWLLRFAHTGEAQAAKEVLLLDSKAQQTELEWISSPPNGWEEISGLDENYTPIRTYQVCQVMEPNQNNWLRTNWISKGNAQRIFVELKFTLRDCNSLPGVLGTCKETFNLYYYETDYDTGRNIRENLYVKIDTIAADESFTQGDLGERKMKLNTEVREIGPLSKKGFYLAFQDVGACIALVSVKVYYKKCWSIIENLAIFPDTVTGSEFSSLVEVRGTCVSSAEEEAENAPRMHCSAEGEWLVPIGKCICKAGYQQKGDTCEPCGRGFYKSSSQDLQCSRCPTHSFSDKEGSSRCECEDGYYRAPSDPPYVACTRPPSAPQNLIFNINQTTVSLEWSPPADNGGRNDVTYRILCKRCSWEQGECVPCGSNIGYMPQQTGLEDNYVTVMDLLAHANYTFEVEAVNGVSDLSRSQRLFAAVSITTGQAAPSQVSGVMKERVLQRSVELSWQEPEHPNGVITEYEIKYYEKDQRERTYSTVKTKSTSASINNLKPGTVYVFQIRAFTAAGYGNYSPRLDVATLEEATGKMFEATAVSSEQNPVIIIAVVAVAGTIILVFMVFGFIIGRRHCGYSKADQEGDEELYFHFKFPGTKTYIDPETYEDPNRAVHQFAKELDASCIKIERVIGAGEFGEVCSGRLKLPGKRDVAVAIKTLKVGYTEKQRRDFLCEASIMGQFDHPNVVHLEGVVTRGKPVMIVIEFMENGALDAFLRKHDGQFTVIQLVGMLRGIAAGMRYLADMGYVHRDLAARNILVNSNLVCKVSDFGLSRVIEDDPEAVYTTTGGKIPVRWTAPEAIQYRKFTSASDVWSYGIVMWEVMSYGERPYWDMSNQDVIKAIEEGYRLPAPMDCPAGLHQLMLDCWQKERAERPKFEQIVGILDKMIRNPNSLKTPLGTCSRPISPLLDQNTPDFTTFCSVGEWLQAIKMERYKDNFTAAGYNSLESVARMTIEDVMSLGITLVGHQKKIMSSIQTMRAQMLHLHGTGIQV
Another experiment concerns the target T3, DRAK1 (Homo sapiens, UniProt Q9UEE5).
T3 construct: gene STK17A
As to the kind of experiment: biochemical. Also on record: KINOMEscan scanMAX competition binding, DNA-tagged kinases, qPCR read-out, percent control at 300 nM.

The target of another experiment is CAMK2B (Homo sapiens, UniProt Q13554). As to the kind of experiment: biochemical. Also on record: KINOMEscan scanMAX competition binding, DNA-tagged kinases, qPCR read-out, percent control at 300 nM.
CAMK2B, sequence (Q13554 whole entry): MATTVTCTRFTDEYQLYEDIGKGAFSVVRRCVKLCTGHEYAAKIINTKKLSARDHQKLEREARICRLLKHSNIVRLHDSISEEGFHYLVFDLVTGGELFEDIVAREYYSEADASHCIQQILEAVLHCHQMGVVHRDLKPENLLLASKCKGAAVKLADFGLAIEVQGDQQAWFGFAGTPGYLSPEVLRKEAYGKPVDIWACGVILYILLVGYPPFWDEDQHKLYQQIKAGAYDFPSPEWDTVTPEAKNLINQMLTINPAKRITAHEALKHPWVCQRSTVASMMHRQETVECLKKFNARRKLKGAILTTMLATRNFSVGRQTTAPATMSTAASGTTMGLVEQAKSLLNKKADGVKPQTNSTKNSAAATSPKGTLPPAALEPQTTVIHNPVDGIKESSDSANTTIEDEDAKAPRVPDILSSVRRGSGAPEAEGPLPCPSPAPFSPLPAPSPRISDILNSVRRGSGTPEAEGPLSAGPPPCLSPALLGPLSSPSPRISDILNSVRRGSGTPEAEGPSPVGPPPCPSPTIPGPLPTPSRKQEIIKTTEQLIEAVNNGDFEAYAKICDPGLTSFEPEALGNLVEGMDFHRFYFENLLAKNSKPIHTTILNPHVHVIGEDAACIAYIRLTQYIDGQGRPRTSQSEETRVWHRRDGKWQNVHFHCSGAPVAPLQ
For another experiment, the target named is T4, HUNK (Homo sapiens, UniProt P57058).
T4 sequence (P57058 1-714): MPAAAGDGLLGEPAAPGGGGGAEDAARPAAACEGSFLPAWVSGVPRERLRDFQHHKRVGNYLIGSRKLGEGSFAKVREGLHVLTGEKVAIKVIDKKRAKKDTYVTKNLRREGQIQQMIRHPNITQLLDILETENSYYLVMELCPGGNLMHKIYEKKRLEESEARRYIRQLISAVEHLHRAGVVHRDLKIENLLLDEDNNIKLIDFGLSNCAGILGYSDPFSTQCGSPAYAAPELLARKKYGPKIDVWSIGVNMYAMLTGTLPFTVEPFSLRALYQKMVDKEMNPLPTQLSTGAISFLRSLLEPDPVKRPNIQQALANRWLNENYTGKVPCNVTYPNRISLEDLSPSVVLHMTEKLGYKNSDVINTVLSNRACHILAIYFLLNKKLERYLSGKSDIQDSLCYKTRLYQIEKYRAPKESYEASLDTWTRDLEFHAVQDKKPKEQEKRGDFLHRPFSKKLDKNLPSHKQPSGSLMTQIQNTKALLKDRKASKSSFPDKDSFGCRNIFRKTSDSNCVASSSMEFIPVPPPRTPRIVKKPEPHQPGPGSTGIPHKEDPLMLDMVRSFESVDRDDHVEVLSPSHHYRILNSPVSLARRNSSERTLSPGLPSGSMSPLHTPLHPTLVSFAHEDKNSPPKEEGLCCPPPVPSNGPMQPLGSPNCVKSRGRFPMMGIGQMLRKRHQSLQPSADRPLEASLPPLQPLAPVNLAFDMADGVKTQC
As to the kind of experiment: biochemical. Also on record: KINOMEscan scanMAX competition binding, DNA-tagged kinases, qPCR read-out, percent control at 300 nM.

The target in the next experiment is FLT3(D835H) (Homo sapiens, UniProt P36888, D835H). As to the kind of experiment: biochemical. Further details: KINOMEscan scanMAX competition binding, DNA-tagged kinases, qPCR read-out, percent control at 300 nM.
Experiment [1] concerns other BioMAP systems such as the T-cell and fibroblast activation systems. As to the kind of experiment: BioMAP Diversity PLUS profiling, other evaluation systems. The following applies: 120, 370, 1100, 3300 nM. The format is cell-based, human. As for the experimental part: In brief, cultures with one or more primary cell types from healthy human donors were treated with sets of stimulators specific to the cell subsets, and the optimized biomarker readouts for each system were measured by ELISA and other techniques, as listed in S1 Table. The assays included positive and negative controls as well as vehicle control. Results are presented as the log-transformed ratio of biomarker readouts for tirabrutinib-treated samples to vehicle controls.

The next experiment addresses T5, TEC (Homo sapiens, UniProt P42680).
T5 sequence (P42680 1-631): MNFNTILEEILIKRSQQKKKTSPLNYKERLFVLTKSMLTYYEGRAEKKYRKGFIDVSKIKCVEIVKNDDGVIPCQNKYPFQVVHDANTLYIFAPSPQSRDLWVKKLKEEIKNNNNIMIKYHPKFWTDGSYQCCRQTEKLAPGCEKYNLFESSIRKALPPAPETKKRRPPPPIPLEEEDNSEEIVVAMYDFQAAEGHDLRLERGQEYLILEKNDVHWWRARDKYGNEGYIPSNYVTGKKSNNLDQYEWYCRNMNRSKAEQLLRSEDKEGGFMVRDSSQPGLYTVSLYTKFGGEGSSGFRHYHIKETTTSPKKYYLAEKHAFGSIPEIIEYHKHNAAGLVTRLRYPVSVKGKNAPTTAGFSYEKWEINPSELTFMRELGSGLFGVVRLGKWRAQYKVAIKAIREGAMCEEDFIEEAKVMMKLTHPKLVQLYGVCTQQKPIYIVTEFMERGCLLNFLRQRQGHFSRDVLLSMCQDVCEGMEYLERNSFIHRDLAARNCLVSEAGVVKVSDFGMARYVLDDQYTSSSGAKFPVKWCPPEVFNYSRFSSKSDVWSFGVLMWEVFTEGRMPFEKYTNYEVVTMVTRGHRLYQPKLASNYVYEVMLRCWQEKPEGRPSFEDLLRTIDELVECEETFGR
As to the kind of experiment: KINOMEscan binding assay. Also on record: purchased Eurofins DiscoverX (KINOMEscan scanMAX service).

The target in another experiment is ERBB2 (Homo sapiens, UniProt P04626). As to the kind of experiment: Z'-Lyte kinase inhibition assay. Further details: purchased Thermo Fisher Scientific (Invitrogen Z'-Lyte service). The class given is biochemical. The following applies: 60 min preincubation. The method, then: In all the assays, each test compound was preincubated with peptide/kinase mixture or kinase/antibody mixture for 60 min at room temperature before adding the ATP solution or AlexaFluor labeled Tracer to initiate the 60-min incubation of the reactants.

The mark [2] stands for this setting: read-out: Percent control / Acalabrutinib.
The mark [3] stands for this setting: read-out: Percent control / Ibrutinib.
The mark [4] stands for this setting: read-out: Percent control / Tirabrutinib.
[5] abbreviates: read-out: Percent control / Zanubrutinib.

T3 sequence (Q9UEE5 whole entry): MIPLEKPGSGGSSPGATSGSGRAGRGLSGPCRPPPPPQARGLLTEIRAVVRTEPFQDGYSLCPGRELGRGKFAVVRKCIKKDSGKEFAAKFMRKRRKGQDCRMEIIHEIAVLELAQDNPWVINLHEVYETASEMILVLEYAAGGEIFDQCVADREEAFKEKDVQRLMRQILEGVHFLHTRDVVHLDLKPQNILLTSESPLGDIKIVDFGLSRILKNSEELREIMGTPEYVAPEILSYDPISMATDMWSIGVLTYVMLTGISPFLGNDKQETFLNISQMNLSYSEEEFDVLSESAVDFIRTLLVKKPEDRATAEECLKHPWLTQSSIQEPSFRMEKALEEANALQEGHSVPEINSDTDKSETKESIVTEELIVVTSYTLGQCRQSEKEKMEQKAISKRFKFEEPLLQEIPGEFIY
T1 sequence (P21127 whole entry): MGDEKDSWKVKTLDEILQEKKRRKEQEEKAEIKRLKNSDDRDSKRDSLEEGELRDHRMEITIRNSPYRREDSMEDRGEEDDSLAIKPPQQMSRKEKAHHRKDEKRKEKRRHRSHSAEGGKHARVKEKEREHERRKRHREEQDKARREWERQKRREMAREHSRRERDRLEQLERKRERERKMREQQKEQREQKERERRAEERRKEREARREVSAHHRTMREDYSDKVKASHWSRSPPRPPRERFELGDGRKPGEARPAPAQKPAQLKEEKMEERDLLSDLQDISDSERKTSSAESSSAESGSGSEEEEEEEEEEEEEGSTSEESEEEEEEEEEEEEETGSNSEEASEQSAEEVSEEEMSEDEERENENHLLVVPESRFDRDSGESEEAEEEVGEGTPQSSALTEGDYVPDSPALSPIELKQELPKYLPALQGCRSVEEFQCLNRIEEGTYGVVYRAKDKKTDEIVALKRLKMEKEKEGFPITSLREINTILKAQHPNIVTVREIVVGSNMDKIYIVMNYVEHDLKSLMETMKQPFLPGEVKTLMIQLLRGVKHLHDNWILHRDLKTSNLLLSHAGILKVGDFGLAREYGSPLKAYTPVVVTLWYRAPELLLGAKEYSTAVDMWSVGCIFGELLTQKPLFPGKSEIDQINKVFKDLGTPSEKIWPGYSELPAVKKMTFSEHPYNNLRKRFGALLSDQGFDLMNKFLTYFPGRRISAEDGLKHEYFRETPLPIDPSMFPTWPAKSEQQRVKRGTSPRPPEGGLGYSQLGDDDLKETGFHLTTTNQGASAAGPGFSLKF

Consider `CC#CC(=O)N1CCC[C@H]1c1nc(-c2ccc(C(=O)Nc3ccccn3)cc2)c2c(N)nccn12` [Acalabrutinib], for which the remaining binding at 0.3 µM at CDC2L1 (setting [2]) came to 93%; on RET(V804L) (setting [2]), 99%; at MAPKAPK2 (setting [2]), 72%; on ADCK4 (setting [2]), 96%; at EPHA7 (setting [2]), 99%; on DRAK1 (setting [2]) it was 95%.
For the molecule `C=CC(=O)N1CCC[C@@H](n2nc(-c3ccc(Oc4ccccc4)cc3)c3c(N)ncnc32)C1` [Ibrutinib], the remaining binding at 0.3 µM was 90% on CAMK2B (setting [3]), 9% on HUNK (setting [3]), 25% on FLT3(D835H) (setting [3]) and 74% at DRAK1 (setting [3]).
With `CC#CC(=O)N1CC[C@@H](n2c(=O)n(-c3ccc(Oc4ccccc4)cc3)c3c(N)ncnc32)C1` [Tirabrutinib], the “effect in other BioMAP evaluation systems” value in [1] is on record as “no significant effect”. Besides, the remaining binding at 0.3 µM turned out to be 11% at HUNK (setting [4]) and 95% on FLT3(D835H) (setting [4]). In addition, on TEC (300 nM, read-out: inhibition of kinase binding (KINOMEscan)), the inhibition (commonly the relative decrease from the control value, in per cent) at 0.3 µM was 92.2%.
In the case of `C=CC(=O)N1CCC([C@@H]2CCNc3c(C(N)=O)c(-c4ccc(Oc5ccccc5)cc4)nn32)CC1` [Zanubrutinib], the negative-log IC50 (pIC50) – broadly, the IC50 on a negative log10 scale, so that one unit is a factor of ten – against ERBB2 was 7.46. Moreover, the remaining binding at 0.3 µM at CAMK2B (setting [5]) was 68%; at CDC2L1 (setting [5]) it was 90%; at RET(V804L) (setting [5]) it was 100%; at MAPKAPK2 (setting [5]) it was 96%; on ADCK4 (setting [5]), 100%; at EPHA7 (setting [5]) it was 97%. The molecule further yielded a Percent control on TEC (kinase TEC (Entrez TEC)) of 20%.
